Reference: US9029370B2, “Substituted benzamide derivatives” (Hoffmann-La Roche Inc., priority 2011, dated 2015)
Structures can show the parent of a compound that is named as a salt.

What was measured:
mouse TAAR1 = mouse TAAR1 (Mus musculus (Mouse), UniProt Q923Y8); experiment: Radioligand binding assay on mouse TAAR1; settings: mouse TAAR1, HEK-293 membranes; first value of the pair (before the slash); read-out: Ki (μM) mouse/rat
Procedure: (§1) For the construction of expression plasmids the coding sequences of human, rat and mouse TAAR 1 were amplified from genomic DNA essentially as described by Lindemann et al.. The Expand High Fidelity PCR System (Roche Diagnostics) was used with 1.5 mM Mg^2+ and purified PCR products were cloned into pCR2.1-TOPO cloning vector (Invitrogen) following the instructions of the manufacturer. PCR products were subcloned into the pIRESneo2 vector (BD Clontech, Palo Alto, Calif.), and expression vectors were sequence verified before introduction in cell lines.
(§2) HEK293 cells (ATCC # CRL-1573) were cultured essentially as described by Lindemann et al. (2005). For the generation of stably transfected cell lines HEK293 cells were transfected with the pIRESneo2 expression plasmids containing the TAAR coding sequences (described above) with Lipofectamine 2000 (Invitrogen) according to the instructions of the manufacturer, and 24 hrs post transfection the culture medium was supplemented with 1 mg/ml G418 (Sigma, Buchs, Switzerland). After a culture period of about 10 d clones were isolated, expanded and tested for responsiveness to trace amines (all compounds purchased from Sigma) with the cAMP Biotrak Enzyme immunoassay (EIA) System (Amersham) following the non-acetylation EIA procedure provided by the manufacturer.
Radioligand Binding Assay on Mouse TAAR1
(§3) Membrane Preparation and Radioligand Binding.
(§4) HEK-293 cells stably expressing mouse TAAR1 were maintained at 37° C. and 5% CO2 in DMEM high glucose medium, containing fetal calf serum (10%, heat inactivated for 30 min at 56° C.), penicillin/streptomycin (1%), and 375 μg/ml geneticin (Gibco). Cells were released from culture flasks using trypsin/EDTA, harvested, washed twice with ice-cold PBS (without Ca^2+ and Mg^2+), pelleted at 1′000 rpm for 5 min at 4° C., frozen and stored at −80° C. […] The homogenate was centrifuged at 48′000×g for 30 min at 4° C. Subsequently, the supernatant was removed and discarded, and the pellet resuspended in 20 ml HEPES-NaOH (20 mM, pH 7.4) containing 0.1 mM EDTA using the Polytron (20 s at 14′000 rpm). This procedure was repeated and the final pellet resuspended in HEPES-NaOH containing 0.1 mM EDTA and homogenized using the Polytron. Typically, aliquots of 2 ml membrane portions were stored at −80° C. With each new membrane batch the dissociation constant (Kd) was determined via a saturation curve. […] Nonspecific binding was defined as the amount of ^3[H]-(S)-4-[(ethyl-phenyl-amino)-methyl]-4,5-dihydro-oxazol-2-ylamine bound in the presence of 10 μM unlabeled ligand. All compounds were tested at a broad range of concentrations (10 pM to 10 μM) in duplicates. […] The 96 deep well plates were incubated for 1 hr at 4° C. Incubations were terminated by rapid filtration through Unifilter-96 plates (Packard Instrument Company) and glass filters GF/C (Perkin Elmer) presoaked for 1 hr in polyethylenimine (0.3%) and washed 3 times with 1 ml of cold binding buffer. After addition of 45 μl of Microscint 40 (PerkinElmer) the Unifilter-96 plate was sealed and after 1 hr the ratioactivity counted using a TopCount Microplate Scintillation Counter (Packard Instrument Company).

rat TAAR1 = rat TAAR1 (Rattus norvegicus (Rat), UniProt Q923Y9); experiment: Radioligand binding assay on rat TAAR1; settings: rat TAAR1, HEK-293 membranes; second value of the pair (line below); read-out: Ki (μM) mouse/rat
Chain of rat TAAR1 (Q923Y9 whole entry): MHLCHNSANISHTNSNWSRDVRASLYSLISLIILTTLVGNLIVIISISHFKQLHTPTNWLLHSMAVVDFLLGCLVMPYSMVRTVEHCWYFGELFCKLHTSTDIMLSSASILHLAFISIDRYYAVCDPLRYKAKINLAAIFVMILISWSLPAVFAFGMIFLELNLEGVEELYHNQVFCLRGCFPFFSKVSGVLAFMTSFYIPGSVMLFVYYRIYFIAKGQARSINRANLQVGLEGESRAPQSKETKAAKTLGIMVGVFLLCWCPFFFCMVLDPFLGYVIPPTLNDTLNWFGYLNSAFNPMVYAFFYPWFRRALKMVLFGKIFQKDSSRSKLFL
Procedure: as §1, §2
Radioligand Binding Assay on Rat TAAR1
as §3
as §4, with “rat” for “mouse”

Chain of mouse TAAR1 (Q923Y8 whole entry): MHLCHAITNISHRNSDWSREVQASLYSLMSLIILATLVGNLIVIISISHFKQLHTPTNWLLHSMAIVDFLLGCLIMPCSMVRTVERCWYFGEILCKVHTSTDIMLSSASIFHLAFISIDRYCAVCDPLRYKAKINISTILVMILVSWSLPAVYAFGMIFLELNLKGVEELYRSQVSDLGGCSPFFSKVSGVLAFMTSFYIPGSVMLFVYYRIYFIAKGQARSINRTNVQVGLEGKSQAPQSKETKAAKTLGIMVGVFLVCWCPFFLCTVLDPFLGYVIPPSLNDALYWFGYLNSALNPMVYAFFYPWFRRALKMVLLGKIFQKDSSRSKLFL

Compound | Ki (mouse TAAR1) | Ki (rat TAAR1)
O=C(Nc1ccc([C@H]2CNCCO2)cc1Cl)c1ccn(-c2ccc(F)cc2)n1 [Example 29, (S)—N-(2-Chloro-4-(morpholin-2-yl)phenyl)-1-(4-fluorophenyl)-1H-pyrazole-3-carboxamide] | 0.0017 µM | 0.0036 µM
O=C(Nc1ccc([C@@H]2CNCCO2)cc1Cl)c1ccn(-c2ccc(F)cc2)n1 [Example 30, (R)—N-(2-Chloro-4-(morpholin-2-yl)phenyl)-1-(4-fluorophenyl)-1H-pyrazole-3-carboxamide] | 0.032 µM | 0.0012 µM
O=C(Nc1ccc([C@H]2CNCCO2)cc1Cl)c1ccc(Cl)cc1 [Example 34, (S)-4-Chloro-N-(2-chloro-4-(morpholin-2-yl)phenyl)benzamide] | 0.0024 µM | 0.0229 µM
O=C(Nc1ccc([C@@H]2CNCCO2)cc1Cl)c1ccc(Cl)nc1 [Example 35, (R)-6-Chloro-N-(2-chloro-4-(morpholin-2-yl)phenyl)nicotinamide] | 0.0082 µM | 0.111 µM
O=C(Nc1ccc([C@H]2CNCCO2)cc1Cl)c1ccc(Cl)nc1 [Example 36, (S)-6-Chloro-N-(2-chloro-4-(morpholin-2-yl)phenyl)nicotinamide] | 0.0139 µM | 0.488 µM
COc1ccc(C#N)cc1NC(=O)Nc1ccc([C@H]2CNCCO2)cc1F [Example 39, (S)-1-(5-Cyano-2-methoxyphenyl)-3-(2-fluoro-4-(morpholin-2-yl)phenyl)urea hydrochloride] | 0.003 µM | 0.0085 µM
Cc1cc([C@@H]2CNCCO2)ccc1NC(=O)Nc1ccc(Cl)nc1 [Example 40, (R)-1-(6-Chloropyridin-3-yl)-3-(2-methyl-4-(morpholin-2-yl)phenyl)urea] | 0.0043 µM | 0.12 µM
Cc1cc([C@@H]2CNCCO2)ccc1NC(=O)c1ccc(Cl)nc1 [Example 42, 6-Chloro-N—((R)-2-methyl-4-morpholin-2-yl-phenyl)-nicotinamide] | 0.028 µM | 3.99 µM
COc1ccc(C#N)cc1NC(=O)Nc1ccc([C@@H]2CNCCO2)cc1Cl [Example 45, (R)-1-(2-Chloro-4-(morpholin-2-yl)phenyl)-3-(5-cyano-2-methoxyphenyl)urea] | 0.0023 µM | 0.0044 µM
COc1ccc(C#N)cc1NC(=O)Nc1ccc([C@H]2CNCCO2)cc1Cl [Example 46, (S)-1-(2-Chloro-4-(morpholin-2-yl)phenyl)-3-(5-cyano-2-methoxyphenyl)urea] | 0.0016 µM | 0.0064 µM
N#Cc1ccc(OC(F)F)c(NC(=O)Nc2ccc([C@@H]3CNCCO3)cc2Cl)c1 [Example 47, (R)-1-(2-Chloro-4-(morpholin-2-yl)phenyl)-3-(5-cyano-2-(difluoromethoxy)phenyl)urea] | 0.002 µM | 0.0012 µM
N#Cc1ccc(OC(F)F)c(NC(=O)Nc2ccc([C@H]3CNCCO3)cc2Cl)c1 [Example 48, (S)-1-(2-Chloro-4-(morpholin-2-yl)phenyl)-3-(5-cyano-2-(difluoromethoxy)phenyl)urea] | 0.0022 µM | 0.0018 µM
O=C(Nc1ccc(Cl)cn1)Nc1ccc([C@@H]2CNCCO2)cc1Cl [Example 55, (R)-1-(2-Chloro-4-(morpholin-2-yl)phenyl)-3-(5-chloropyridin-2-yl)urea] | 0.0012 µM | 0.0014 µM
N#Cc1ccc(F)c(NC(=O)Nc2ccc([C@@H]3CNCCO3)cc2F)c1 [Example 56, 1-(5-Cyano-2-fluoro-phenyl)-3-((R)-2-fluoro-4-morpholin-2-yl-phenyl)-urea] | 0.002 µM | 0.0035 µM
N#Cc1cccc(NC(=O)Nc2ccc([C@@H]3CNCCO3)cc2F)c1F [Example 62, (R)-1-(3-Cyano-2-fluorophenyl)-3-(2-fluoro-4-(morpholin-2-yl)phenyl)urea] | 0.0031 µM | 0.0028 µM

Further lines, results first:

Ki (mouse TAAR1) | Ki (rat TAAR1) | Compound
0.0021 µM | 0.0015 µM | O=C(Nc1ccc(C(F)(F)F)nc1)Nc1ccc([C@@H]2CNCCO2)cc1Cl [Example 49, (R)-1-(2-Chloro-4-(morpholin-2-yl)phenyl)-3-(6-(trifluoromethyl)pyridin-3-yl)urea]
0.0018 µM | 0.0014 µM | O=C(Nc1ccc(C(F)(F)F)nc1)Nc1ccc([C@H]2CNCCO2)cc1Cl [Example 50, (S)-1-(2-Chloro-4-(morpholin-2-yl)phenyl)-3-(6-(trifluoromethyl)pyridin-3-yl)urea]
0.0067 µM | 0.0126 µM | O=C(Nc1cnc(C(F)(F)F)nc1)Nc1ccc([C@H]2CNCCO2)cc1Cl [Example 51]
0.0049 µM | 0.0058 µM | O=C(Nc1cnc(C(F)(F)F)nc1)Nc1ccc([C@@H]2CNCCO2)cc1Cl [Example 52, 1-((R)-2-Chloro-4-morpholin-2-yl-phenyl)-3-(2-trifluoromethyl-pyrimidin-5-yl)-urea]
0.0015 µM | 0.0017 µM | O=C(Nc1ccc(C(F)(F)F)cn1)Nc1ccc([C@H]2CNCCO2)cc1Cl [Example 53, (S)-1-(2-Chloro-4-(morpholin-2-yl)phenyl)-3-(5-(trifluoromethyl)pyridin-2-yl)urea]
0.003 µM | 0.0018 µM | O=C(Nc1ccc(C(F)(F)F)cn1)Nc1ccc([C@@H]2CNCCO2)cc1Cl [Example 54, (R)-1-(2-Chloro-4-(morpholin-2-yl)phenyl)-3-(5-(trifluoromethyl)pyridin-2-yl)urea]
0.0039 µM | 0.0127 µM | COc1ccc(C#N)cc1NC(=O)Nc1ccc([C@@H]2CNCCO2)cc1Br [Example 57, 1-((R)-2-Bromo-4-morpholin-2-yl-phenyl)-3-(5-cyano-2-methoxy-phenyl)-urea]
0.0038 µM | 0.0161 µM | COc1ccc(C#N)cc1NC(=O)Nc1ccc([C@H]2CNCCO2)cc1Br [Example 58, 1-((S)-2-Bromo-4-morpholin-2-yl-phenyl)-3-(5-cyano-2-methoxy-phenyl)-urea]
0.0018 µM | 0.001 µM | N#Cc1cc(F)cc(NC(=O)Nc2ccc([C@@H]3CNCCO3)cc2F)c1 [Example 59, 1-(3-Cyano-5-fluoro-phenyl)-3-((R)-2-fluoro-4-morpholin-2-yl-phenyl)-urea]
0.0008 µM | 0.001 µM | N#Cc1ccc(OC(F)F)c(NC(=O)Nc2ccc([C@@H]3CNCCO3)cc2Br)c1 [Example 60, 1-((R)-2-Bromo-4-morpholin-2-yl-phenyl)-3-(5-cyano-2-difluoromethoxy-phenyl)-urea]
0.0018 µM | 0.0025 µM | N#Cc1ccc(OC(F)F)c(NC(=O)Nc2ccc([C@H]3CNCCO3)cc2Br)c1 [Example 61, 1-((S)-2-Bromo-4-morpholin-2-yl-phenyl)-3-(5-cyano-2-difluoromethoxy-phenyl)-urea]
